From patent US20050107465A1, “Composition for treating inflammatory bowel disease” (priority 2003, published 2005)
Entries after “also recorded” stand apart in the source; their conditions may differ.

System: MAdCAM-1 expression in murine colon microvessel endothelial cells
Test: Western blot assay for TNF-α induced MAdCAM-1 expression in murine colon microvessel endothelial cells
Assay type: cell-based
Conditions: EC monolayer pre-treated with test agent, then TNF-α 20 ng/ml for 24 hours, western blot densitometry (FIG. 2)
Procedure: A line of murine colon microvessel endothelial cells was developed for use as an in vitro model of colon inflammatory adhesion molecule expression in IBD. Immortomouse mice were used as tissue sources for these studies. Colon segments were sterilely removed and treated with collagenase (0.2%, 45 min) and cultured in d-valine MEM with IFN-g (10 U/ml) with 2% FCS and non-essential amino acids and vitamins. These cells were cultured on gelatin and were maintained at 37 C. for 24 hours prior to exposure to treatment protocols. In treatments, cells cultured on 24 well plates were incubated in either medium, or medium containing antioxidant or antioxidant admixture ± vitamin E TPGS for 24-48 hour prior to the administration of inflammatory cytokine (TNF-α, 20 ng/ml). At 24 hours combined treatments, monolayers were evaluated for MAdCAM-1 by standard western blotting.
EC cells developed as above were cultured in 2% fetal calf serum, with 50 U/ml interferon-gamma, d-valine supplemented MEM, 1% penicillin/streptomycin and 1 % non-essential amino acids using tissue culture were pre-coated with 1 % gelatin. Adhesion molecule expression was measured in these cells by switching cells to medium without interferon, culturing for 48 hours and then pre-treating cells with test agents for 24 hours prior to exposure to TNF-α for an additional 24 hours. MAdCAM-1 expression was measured using standard western blotting procedures described above. One hundred μg of protein was loaded per lane in non-denaturing sample buffer (w/o mercaptoethanol) and electrophoresed, and subsequently transferred to nitrocellulose. After blocking (5% milk, 2 h), blots were incubated in MAdCAM-1 antibody (10 ug/ml) for 12 hours and reacted by enhanced chemiluminescence (ECL). Gels were analyzed by densitometric analysis by scanning x-ray replicas of the exposed blots.
A murine colon microvessel endothelial cell line (EC monolayer) was developed as described above. Cytokine induced MAdCAM-1 expression in these cells was determined via Western Blot assay described above. An initial experiment evaluated the ability of gamma-tocopherol alone or formulated with vitamin E TPGS to block cytokine induction of MAdCAM-1 in this cell line is shown in FIG. 2.

Compound | effect on cytokine induced MAdCAM-1 expression (in words) | effect on cytokine induced MAdCAM-1 expression (in words) (listed as coenzyme Q10) | decrease in MAdCAM-1 expression | effect on cytokine induced MAdCAM-1 expression (in words) (listed as vitamin E TGPS)
COC1=C(OC)C(=O)C(C/C=C(\C)CC/C=C(\C)CC/C=C(\C)CC/C=C(\C)CC/C=C(\C)CC/C=C(\C)CC/C=C(\C)CC/C=C(\C)CC/C=C(\C)CCC=C(C)C)=C(C)C1=O [Coenzyme Q10] | less beneficial than alpha-tocopherol therapy | relatively minor effect | – | –
Cc1c(C)c2c(c(C)c1O)CC[C@@](C)(CCC[C@H](C)CCC[C@H](C)CCCC(C)C)O2 [alpha-tocopherol] | relatively minor effect; also recorded: significantly less effective than gamma-tocopherol alone | – | – | –
Cc1c(O)cc2c(c1C)O[C@](C)(CCC[C@H](C)CCC[C@H](C)CCCC(C)C)CC2 [gamma-tocopherol] | significantly decrease | – | at least 50% | –
vitamin E TPGS | relatively small effect; also recorded: only a slight decrease | – | – | relatively minor effect
